We go through 16 compounds from patent US20250154150A1, “SUBSTITUTED FUSED RING COMPOUND, PHARMACEUTICAL COMPOSITION THEREOF, PREPARATION METHOD THEREFOR AND USES THEREOF” (SUZHOU YABAO PHARMACEUTICAL R&D CO., LTD., priority 2022, published 2025).

The target of assay [1] is LRRK2 G2019S (Homo sapiens (Human), UniProt Q5S007, G2019S). As to the kind of experiment: Kinase inhibition assay (ADP-Glo, LRRKtide substrate). The assay is classed as biochemical. To be noted: LRRK2 G2019S protein, room temperature. The procedure:
Kinase LRRK2 G2019S protein was derived from Carna, LRRKtide was derived from Signalchem, ATP was derived from Promega, and DMSO was derived from Sigma.
All assays were performed at room temperature. The test compounds were dissolved and diluted, and then added to a 384-well plate. 2.5 μL of 2× kinase reaction buffer was added, and the mixture was centrifuged. 2.5 μL of a mixture of 2× substrate and ATP was added, and the mixture was centrifuged. 4 μL of ADP-Glo reagent was added, and the mixture was incubated at room temperature for 40 min. 8 μL of […] was added, and the mixture was incubated at room temperature for 40 min. Then, the data were read using the Envision 2104 multi-label Reader.
(In ADP-Glo the light output rises with the ADP produced.)

Assay [2] deals with LRRK2-R1441C (Homo sapiens (Human), UniProt Q5S007, R1441C). As to the kind of experiment: HEK293 cell kinase inhibition assay (NanoBRET). The assay is classed as cell-based. The following applies: HEK293 cells. The procedure:
(§1) HEK293 cells were cultured, and collected by adding trypsin. Culture medium was added, and the cell density was adjusted to 2×10^5/mL. Liposome-DNA complexes were constructed and mixed with HEK293 cells at a ratio of 1:20. The mixture was added to a 384-well plate, and incubated at 37° C. for 20-30 h. A mixed solution of enzyme substrate and the test compound was added, and the mixture was incubated at room temperature for 2-3 min. NanoBRET reagent (Promega) was added, and bioluminescence was measured within 10 min using the microplate reader (Envision 2104) at 450 nm for the donor luciferase protein (donor) and 610 nm for the acceptor fluorescent group (acceptor). The BRET ratio for the test compounds was calculated using the following formula, including a background correction option.
(§2) [formula] • Acceptorsample: 610 nm fluorescence with the test compound; • Donorsample: 450 nm fluorescence with the test compound; • Acceptorno-tracer control: 610 nm fluorescence of background (without the test compound); • Donorno-tracer control: 450 nm fluorescence of background (without the test compound)
(§3) The inhibitory activity of the test compounds on cellular LRRK2 enzyme was calculated by the following formula: […]
(§4) The IC50 values of the test compounds against cellular LRRK2 enzyme were calculated using Graphpad software. Non-linear regression fitting (dose-effect−variable slope method) was performed on the percentage inhibition rate versus logarithmic concentration curve of the compounds.
(§5) [formula] • X: logarithmic inhibitor concentration; Y: percentage inhibition rate; Bottom: a minimum value; Top: a maximum value; Hill Slope: hill slope

The target in assay [3] is LRRK2-2019S (Homo sapiens (Human), UniProt Q5S007, G2019S). As to the kind of experiment: HEK293 cell kinase inhibition assay (NanoBRET). The assay is classed as cell-based. To be noted: HEK293 cells. The method, then: as §1, §2, §3, §4, §5
Assay [4] addresses LRRK2 (Homo sapiens (Human), UniProt Q5S007). As to the kind of experiment: HEK293 cell kinase inhibition assay (NanoBRET). The class given is cell-based. The following applies: HEK293 cells. The procedure: as §1, §2, §3, §4, §5
A general note: BRET reads energy transfer from a luciferase to a nearby fluorophore.

Assay [5] deals with LRRK2. Nature of the assay: In vivo efficacy, oral administration: LRRK2 phosphorylation (pS935-LRRK2/LRRK2) in brain tissue by Western blot. More on the design: species or system LRRK2-G2019S mice. The text has this: 1. Objective: The study aims to determine the in vivo efficacy of compound 527 by observing the inhibition effect of compound 527 on the phosphorylation level of LRRK2 in the brains of G2019S mutant LRRK2 gene knock-in mice following oral administration.
(1) Animals: B6.Cg-Tg(Lrrk2*G2019S)2Yue/J transgenic mice were purchased from Jackson Laboratory. The mice were bred with C57BL/6J mice to produce LRRK2 heterozygote mice carrying the G2019S mutation (LRRK2-G2019S mice). The mice included an equal number of male and female individuals, with body weights ranging from 16-20 g and ages between 15-17 weeks.
(2) Grouping and administration: The mice were randomly divided into 5 experimental groups based on their body weights. Each group consisted of 8 animals, with 4 males and 4 females. The specific administration for each experimental group is detailed in the following Table 1. Group G1 served as the vehicle control group. For group G2 to group G5, compound 527 was administered at doses of 1 mg/kg, 3 mg/kg, 10 mg/kg, and 30 mg/kg, respectively.
(3) Intracerebral LRRK2 activity assay: One hour after administration, the animals were euthanized using CO2. The brain tissues were collected, rapidly frozen in liquid nitrogen, and then cryopreserved at −80 C until subsequent experiments. The brain tissues were homogenized in an RIPA buffer containing cOmplete™ protease inhibitor mixture (Roche, 04693124001) and phosphatase inhibitor mixture 2 (sigma, R^0278). Protein quantification was performed using the BCA method. The phosphorylation level of LRRK2 at pS935 site (primary antibody Anti-LRRK2 (phospho S935) antibody, abcam, ab133450), and the total LRRK2 level (primary antibody Anti-LRRK2 antibody, Abcam, ab33518) were detected by Western blot method. The activity level of LRRK2 in the brain was represented by the phosphorylation level at S935 site of LRRK2, i.e., the ratio of pS935-LRRK2 to total LRRK2 (pS935-LRRK2/LRRK2).
On the technique in general: In western blotting, separated proteins are transferred to a membrane and probed.

The mark [6] stands for this setting: LRRK2-G2019S mice, oral gavage, single dose, brain collected 1 h after administration.

By IC50 is commonly meant the concentration needed to halve the response being measured. High values mean weaker potency in that assay, low ones greater potency in that assay.

Chain of LRRK2 G2019S (Q5S007 whole entry G2019S): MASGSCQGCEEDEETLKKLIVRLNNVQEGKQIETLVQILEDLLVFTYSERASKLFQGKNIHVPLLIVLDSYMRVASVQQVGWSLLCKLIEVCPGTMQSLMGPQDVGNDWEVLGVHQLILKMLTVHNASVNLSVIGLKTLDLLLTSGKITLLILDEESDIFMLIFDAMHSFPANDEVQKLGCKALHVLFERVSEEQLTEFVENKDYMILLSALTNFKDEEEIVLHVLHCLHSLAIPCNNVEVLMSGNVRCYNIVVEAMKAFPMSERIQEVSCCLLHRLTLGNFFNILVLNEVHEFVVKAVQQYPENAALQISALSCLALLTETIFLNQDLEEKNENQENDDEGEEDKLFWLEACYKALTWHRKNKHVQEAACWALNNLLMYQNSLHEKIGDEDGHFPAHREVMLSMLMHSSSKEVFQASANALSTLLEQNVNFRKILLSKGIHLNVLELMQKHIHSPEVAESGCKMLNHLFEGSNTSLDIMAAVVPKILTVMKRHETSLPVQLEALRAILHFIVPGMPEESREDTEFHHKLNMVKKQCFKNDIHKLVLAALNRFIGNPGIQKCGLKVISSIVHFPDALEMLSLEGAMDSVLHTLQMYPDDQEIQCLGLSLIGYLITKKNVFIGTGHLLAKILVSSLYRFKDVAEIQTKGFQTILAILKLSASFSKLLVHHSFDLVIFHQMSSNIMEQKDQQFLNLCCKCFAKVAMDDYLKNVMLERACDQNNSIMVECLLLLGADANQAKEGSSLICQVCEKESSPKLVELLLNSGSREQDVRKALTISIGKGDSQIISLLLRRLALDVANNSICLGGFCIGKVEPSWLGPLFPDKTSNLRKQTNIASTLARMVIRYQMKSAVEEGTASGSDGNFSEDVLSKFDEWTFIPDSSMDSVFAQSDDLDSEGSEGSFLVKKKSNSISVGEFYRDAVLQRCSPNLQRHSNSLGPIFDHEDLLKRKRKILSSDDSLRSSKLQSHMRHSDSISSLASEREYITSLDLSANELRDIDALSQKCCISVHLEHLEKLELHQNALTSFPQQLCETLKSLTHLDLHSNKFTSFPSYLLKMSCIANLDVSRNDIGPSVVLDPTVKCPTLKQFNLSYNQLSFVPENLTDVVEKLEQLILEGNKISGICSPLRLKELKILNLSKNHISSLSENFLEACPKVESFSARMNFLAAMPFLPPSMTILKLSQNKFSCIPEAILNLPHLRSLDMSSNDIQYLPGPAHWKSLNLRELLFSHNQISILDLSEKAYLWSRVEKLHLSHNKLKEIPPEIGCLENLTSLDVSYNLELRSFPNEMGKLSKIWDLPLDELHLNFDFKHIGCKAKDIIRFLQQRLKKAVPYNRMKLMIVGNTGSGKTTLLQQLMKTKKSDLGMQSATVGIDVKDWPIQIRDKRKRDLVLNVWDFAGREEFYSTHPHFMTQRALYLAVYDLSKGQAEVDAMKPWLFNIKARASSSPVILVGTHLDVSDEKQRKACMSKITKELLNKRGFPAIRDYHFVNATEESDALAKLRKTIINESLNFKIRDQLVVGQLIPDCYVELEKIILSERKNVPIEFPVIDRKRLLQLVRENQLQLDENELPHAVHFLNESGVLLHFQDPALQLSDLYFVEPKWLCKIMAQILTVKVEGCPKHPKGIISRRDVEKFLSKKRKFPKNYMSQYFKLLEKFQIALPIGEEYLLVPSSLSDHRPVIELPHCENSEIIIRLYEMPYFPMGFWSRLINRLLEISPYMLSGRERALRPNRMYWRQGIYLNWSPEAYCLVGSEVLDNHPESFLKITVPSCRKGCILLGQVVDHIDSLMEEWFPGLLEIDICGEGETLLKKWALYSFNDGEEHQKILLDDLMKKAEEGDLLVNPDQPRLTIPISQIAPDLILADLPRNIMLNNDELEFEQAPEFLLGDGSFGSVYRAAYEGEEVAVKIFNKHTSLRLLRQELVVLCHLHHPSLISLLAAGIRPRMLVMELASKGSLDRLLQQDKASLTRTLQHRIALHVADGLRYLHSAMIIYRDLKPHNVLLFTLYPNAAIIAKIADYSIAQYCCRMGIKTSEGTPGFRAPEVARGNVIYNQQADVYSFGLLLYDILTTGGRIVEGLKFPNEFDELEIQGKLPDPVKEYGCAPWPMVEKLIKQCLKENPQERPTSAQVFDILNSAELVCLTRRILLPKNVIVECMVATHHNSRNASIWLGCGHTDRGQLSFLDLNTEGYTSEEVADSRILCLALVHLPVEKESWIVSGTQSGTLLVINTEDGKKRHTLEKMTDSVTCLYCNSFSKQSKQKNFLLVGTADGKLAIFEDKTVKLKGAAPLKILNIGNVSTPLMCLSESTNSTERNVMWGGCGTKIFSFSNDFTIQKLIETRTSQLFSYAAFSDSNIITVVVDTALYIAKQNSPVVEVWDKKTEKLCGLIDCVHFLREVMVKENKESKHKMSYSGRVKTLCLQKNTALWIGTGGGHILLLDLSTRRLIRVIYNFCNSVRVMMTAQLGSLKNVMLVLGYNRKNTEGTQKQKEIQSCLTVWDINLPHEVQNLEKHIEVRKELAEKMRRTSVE
Chain of LRRK2 (Homo sapiens (Human), UniProt Q5S007) (Q5S007 whole entry): as the sequence (Q5S007 whole entry G2019S) above, with S2019G counted along it
Chain of LRRK2-R1441C (Q5S007 whole entry R1441C): as the sequence (Q5S007 whole entry G2019S) above, with R1441C, S2019G counted along it
Chain of LRRK2-2019S (Q5S007 whole entry G2019S): as the sequence (Q5S007 whole entry G2019S) above

In turn, `C[C@@H]1C[C@H](Nc2nccc3[nH]nc(-c4cc(N5C[C@@H]6C[C@H]5CO6)ncn4)c23)C[C@H](C)O1` [Compound 424] yielded an IC50 in assay [1] of 3.7 nM.
Same read-out and setting: then `C[C@@H]1C[C@H](Nc2nccc3[nH]nc(-c4cc(N5C[C@H]6C[C@@H]5CO6)ncn4)c23)C[C@H](C)O1` [Compound 425], with 1.9 nM; and `C[C@@H]1CN(c2cc(-c3n[nH]c4ccnc(N[C@@H](C)C(F)(F)F)c34)ncn2)C[C@H](C)O1` [Compound 528], with 1.6 nM.
The same measure, in the same setting: then `N#CC1(c2cc(-c3n[nH]c4ccnc(NCC(F)(F)F)c34)ncn2)CCC1` [Compound 523, 1-(6-(4-((2,2,2-trifluoroethyl)amino)-1H-pyrazolo[4,3-c]pyridin-3-yl)pyrimidin-4-yl)cyclobutane-1-carbonitrile], with 2.4 nM; and `FC(F)(F)CNc1nccc2[nH]nc(-c3ccccn3)c12` [Control compound, reference compound], with 12 nM.
Still for that read-out and setting: then `CC(C)n1cc(-c2n[nH]c3ccnc(NCC(F)(F)F)c23)cn1` [Compound 515], with 27.7 nM; and `O[C@@H]1C[C@H](O)CN(c2cc(-c3n[nH]c4ccnc(NCC(F)(F)F)c34)ncn2)C1` [Compound 526, (3S,5R)-1-(6-(4-((2,2,2-trifluoroethyl)amino)-1H-pyrazolo[4,3-c]pyridin-3-yl)pyrimidin-4-yl)piperidine-3,5-diol], with 5.1 nM; and `C[C@@H]1CN(c2cc(-c3n[nH]c4ccnc(NC5(C)CC5)c34)ncn2)C[C@H](C)O1` [Compound 391], with 9.5 nM.
Take `FC(F)(F)CNc1nccc2[nH]nc(-c3cc(N4C[C@@H]5C[C@H]4CO5)ncn3)c12` [Compound 486]: it took 3.1 nM to reach half-maximal inhibition in assay [1] (IC50).
On to `FC(F)(F)CNc1nccc2[nH]nc(-c3cc(N4C5CCC4COC5)ncn3)c12` [Compound 520], for which the IC50 in assay [1] came to 4.8 nM.
In turn, `C[C@H]1CN(c2cc(-c3n[nH]c4ccnc(N[C@H](C)C(F)(F)F)c34)ncn2)C[C@H](C)O1` [Compound 561] yielded an IC50 in assay [1] of 1.3 nM.
In the case of `FC(F)(F)CNc1nccc2[nH]nc(-c3cc(N4C[C@H]5C[C@@H]4CO5)ncn3)c12` [Compound 487], the IC50 in assay [1] is 2.4 nM.
Consider `C[C@@H]1CN(c2cc(-c3n[nH]c4ccnc(NCC(F)(F)F)c34)ncn2)C[C@H](C)O1` [Compound 447], for which the IC50 in assay [2] stood at 297 nM; in assay [3], 97.5 nM; in assay [4] it was 247 nM; in assay [1], 2.8 nM.
As for `C[C@@H]1C[C@@H](Nc2nccc3[nH]nc(-c4cc(N5C[C@H]6C[C@@H]5CO6)ncn4)c23)C[C@H](C)O1` [Compound 440], the IC50 in assay [1] was 36.5 nM.
Still for that read-out and setting: then `C[C@@H]1C[C@H](Nc2nccc3[nH]nc(-c4cc(N5C[C@@H](C)O[C@@H](C)C5)ncn4)c23)C[C@H](C)O1` [Compound 407, 3-(6-((2S,6R)-2,6-dimethylmorpholinyl)pyrimidin-4-yl)-N-((2R,4R,6S)-2,6-dimethyltetrahydro-2H-pyran-4-yl)-1H-pyrazolo[4,3-c]pyridine-4-amine], with 2.2 nM.
Regarding `C[C@@H]1CN(c2cc(-c3n[nH]c4ccnc(N[C@H](C)C(F)(F)F)c34)ncn2)C[C@H](C)O1` [Compound 527], the 50% inhibitory concentration (IC50) in assay [2] was 45.9 nM; in assay [3], 16.3 nM; in assay [4], 24.7 nM; in assay [1], 1.2 nM. For the same compound, in assay [5] (30 mg/kg oral gavage, 1 h, LRRK2-G2019S mice, stated as the definition of the maximum effective dose), the “inhibition of the phosphorylation of LRRK2 in the brain tissues” value was found to be 60%. In addition, in assay [5] (setting [6]), the “effective dose for inhibiting the phosphorylation of LRRK2 in the brain tissues” value came to 10 mg/kg. In assay [5] (setting [6]), the “maximum effective dose (defined as 60% inhibition of the phosphorylation of LRRK2)” value worked out at 30 mg/kg. For the same compound, the “human equivalent dose corresponding to the effective dose” value in assay [5] (calculated for a body weight of 70 kg, from 10 mg/kg in mice) was 57 mg. In addition, the “human equivalent dose corresponding to the maximum effective dose” value in assay [5] (calculated for a body weight of 70 kg, from 30 mg/kg in mice) is given as 171 mg.
